ChEMBL document CHEMBL2417393, “Structure guided optimization of a fragment hit to imidazopyridine inhibitors of PI3K” (Bioorg Med Chem Lett, 2013)
In brackets after ≈: the same amount, converted by molar mass.

Key:
[1] = Solubility of the compound in PBS buffer at pH 7.4; type: physicochemical
[2] = Half life in rat microsomes; type: ADME, Microsome
[3] = Clearance in rat microsomes; type: ADME, Microsome
[4] = Apparent permeability from basolateral to apical side in human Caco2 cells; type: ADME, cell-based; conditions: Caco-2
[5] = Apparent permeability from apical to basolateral side in human Caco2 cells; type: ADME, cell-based; conditions: Caco-2
[6] = Cmax in rat at 10 mg/kg, po; type: ADME, organism-based; design: dose 10 mg/kg, route oral; conditions: in vivo
[7] = AUC in rat at 10 mg/kg, po; type: ADME, organism-based; design: dose 10 mg/kg, route oral; conditions: plasma
[8] = Bioavailability in rat at 5 mg/kg, iv; type: ADME, organism-based; conditions: in vivo
[9] = Half life in rat at 5 mg/kg, iv; type: ADME, organism-based; design: dose 5 mg/kg, route intravenous; conditions: in vivo
[10] = Clearance in rat at 5 mg/kg, iv; type: ADME, organism-based; design: dose 5 mg/kg, route intravenous; conditions: in vivo
[11] = Volume of distribution at steady state in rat at 5 mg/kg, iv; type: ADME, organism-based; design: dose 5 mg/kg, route intravenous; conditions: in vivo, read-out: Vdss
[12] = Lipophilicity, log D of the compound at pH 7.4; type: physicochemical; conditions: buffer

CC(=O)Nc1nc2ccc(-c3cnc(N)c(C(F)(F)F)c3)cc2o1
solubility [1]: 1.3 µM (≈ 0.437 µg/mL)

Nc1ccc(-c2ccc3nc(NC(=O)CCCN4CCCCC4)sc3c2)cn1
solubility [1]: 28 µM (≈ 11.1 µg/mL)

CC(=O)Nc1nc2ccc(-c3ccc(N)nc3)cc2s1
half-life [2]: 3.12 h | clearance [3]: 4 µL/min/mg | Papp B→A [4]: 42 ×10⁻⁶ cm/s | Papp A→B [5]: 46 ×10⁻⁶ cm/s | Cmax [6]: 2500 nM | AUC [7]: 16 µM·h | bioavailability [8]: 57% | half-life [9]: 2.5 h | clearance [10]: 19 mL/min/kg | Vd [11]: 3.6 L/kg | solubility [1]: 4.2 µM (≈ 1.19 µg/mL)

COC(=O)c1ccc2nc(NC(C)=O)sc2c1
logD [12]: 1.5

Nc1ccc(-c2ccc3nc(NC(=O)CN4CCCCC4)sc3c2)cn1
solubility [1]: 7.1 µM (≈ 2.61 µg/mL)

CC(=O)Nc1cn2cc(-c3cnc(N)c(C(F)(F)F)c3)ncc2n1
solubility [1]: 1 µM (≈ 0.336 µg/mL)

CC(=O)Nc1nc2ccc(-c3cnc(N)c(C(F)(F)F)c3)cc2s1
half-life [2]: 13 h | clearance [3]: 8 µL/min/mg | Papp B→A [4]: 13 ×10⁻⁶ cm/s | Papp A→B [5]: 16 ×10⁻⁶ cm/s | Cmax [6]: 2900 nM | AUC [7]: 18 µM·h | solubility [1]: 1.5 µM (≈ 0.529 µg/mL)

Nc1ncc(-c2ccc3nc(NC(=O)CCCN4CCCCC4)sc3c2)cc1C(F)(F)F
solubility [1]: 56 µM (≈ 26 µg/mL)

Nc1ncc(-c2ccc3nc(NC(=O)CCCN4CCOCC4)sc3c2)cc1C(F)(F)F
solubility [1]: 8.3 µM (≈ 3.86 µg/mL)

CC(=O)Nc1ncc2cc(-c3cnc(N)c(C(F)(F)F)c3)ccc2n1
solubility [1]: 0.5 µM (≈ 0.174 µg/mL)

CC(=O)Nc1nc2ccc(-c3cnc(N)c(C(F)(F)F)c3)cc2n1C
solubility [1]: 25 µM (≈ 8.73 µg/mL)

CC(=O)Nc1cn2cc(-c3cnc(N)c(C(F)(F)F)c3)cnc2n1
solubility [1]: 4.8 µM (≈ 1.61 µg/mL)

CC(=O)Nc1cn2cc(-c3cnc(N)c(C(F)(F)F)c3)ccc2n1
half-life [2]: 13 h | clearance [3]: 8 µL/min/mg | Papp B→A [4]: 40 ×10⁻⁶ cm/s | Papp A→B [5]: 40 ×10⁻⁶ cm/s | Cmax [6]: 15700 nM | AUC [7]: 198 µM·h | bioavailability [8]: 95% | half-life [9]: 3 h | clearance [10]: 2 mL/min/kg | Vd [11]: 0.68 L/kg

COc1cc(-c2ccc3nc(NC(C)=O)sc3c2)cnc1N
Papp B→A [4]: 18 ×10⁻⁶ cm/s | Papp A→B [5]: 6.7 ×10⁻⁶ cm/s
